Read-outs that look alike come from different tables or passages of the source. Blank lines part the entries; values can stand above or below the compound they belong to.
Experiments:
[1] = molecular target: T1, adenosine deaminase (ADA) (Homo sapiens, UniProt P00813); format: biochemical; settings: for reaction half-life t1/2 of deamination by ADA: calculated assuming a pseudo-first order reaction, real-time absorption; for deamination rate by ADA (in words): real-time continuous measurements, compared with A to I
T1 sequence (P00813 1-363): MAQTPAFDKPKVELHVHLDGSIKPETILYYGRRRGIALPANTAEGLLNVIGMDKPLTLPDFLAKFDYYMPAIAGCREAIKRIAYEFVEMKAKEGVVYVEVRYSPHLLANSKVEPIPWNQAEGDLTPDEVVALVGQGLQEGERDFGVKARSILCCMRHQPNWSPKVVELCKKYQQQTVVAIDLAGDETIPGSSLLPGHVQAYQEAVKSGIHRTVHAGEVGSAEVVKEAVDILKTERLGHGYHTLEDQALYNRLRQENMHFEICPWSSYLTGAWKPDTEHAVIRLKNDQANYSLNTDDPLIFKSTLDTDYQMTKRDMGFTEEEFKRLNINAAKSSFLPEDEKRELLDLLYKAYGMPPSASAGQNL

[2] = molecular target: T1, adenosine deaminase (ADA); settings: conversion of ^thA to ^thI; ref 4b; cited from earlier work
[3] = cited from earlier work

reaction half-life t1/2 of deamination by ADA [1]: 818 s
deamination rate by ADA (in words) [1]: sluggish
SMILES: Nc1ncnc2c([C@@H]3O[C@H](CO)[C@@H](O)[C@H]3O)scc12 [^thA]
enzymatic conversion by ADA, times slower compared to adenosine [2]: approximately 20 times

reaction half-life t1/2 of deamination by ADA [1]: 39 s
deamination rate by ADA (in words) [1]: at the same rate as it deaminates A to I
SMILES: Nc1ncnc2c([C@@H]3O[C@H](CO)[C@@H](O)[C@H]3O)snc12 [^tzA]

half-life ([1]; adenosine deaminase (ADA) enzyme): 57 s
SMILES: Nc1ncnc2c1ncn2[C@@H]1O[C@H](CO)[C@@H](O)[C@H]1O [adenosine]
pKa (N1) ([3]; reported values for adenosine): 3.6– 4.2

The next lines start with the compound.

SMILES: Nc1nc2c(ncn2[C@@H]2O[C@H](CO)[C@@H](O)[C@H]2O)c(=O)[nH]1 [guanosine]
pKa (N7) ([3]; reported values for guanosine, first value): 3.2–3.3
pKa (N1) ([3]; reported values for guanosine, second value): 9.2–9.6

SMILES: O=c1ccn([C@@H]2O[C@H](CO)[C@@H](O)[C@H]2O)c(=O)[nH]1 [uridine]
pKa (N3 deprotonation) ([3]; values reported for N3 deprotonation in uridine): 9.20–9.25

Reference: PMC5281058 (Journal of the American Chemical Society, 2015)
